Reference: patent US12685312B2, “Sulfonamide apyrase inhibitors” (Texas Crop Science, Inc., priority 2022, dated 2026)

These compounds were tested on apyrase (assay: Screen for apyrase inhibitors (Method 1, in vitro phosphate-release absorbance assay)). Conditions: inhibitor conc at 1 mM stock, 1 hr room temperature, absorbance 630 nm; rounded average of two assay results.
Type: biochemical
Summary of the method: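 Phosphate-release colorimetric assay (Windsor method) in 60 mM Hepes, 3 mM MgCl2, 3 mM CaCl2, 3 mM ATP, pH 6.5, with compound or DMSO control added. Released phosphate developed with ammonium molybdate and ascorbic acid/TCA, then stopped with citrate/acetic acid.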

Row | Structure (SMILES) | % Inhibition of Apyrase [%]
1 | O=C(Nc1ccccc1)c1ccccc1NS(=O)(=O)c1cccc(C(F)(F)F)c1 [I-377, N-phenyl-2-((3-(trifluoromethyl)phenyl)sulfonamido) benzamide] | 20
2 | O=C(Nc1cccc2cccnc12)c1cccc(S(=O)(=O)N2CCc3ccccc32)c1 [I-444, 3-(indolin-1-ylsulfonyl)-N-(quinolin-8-yl)benzamide] | 61
3 | COc1ccccc1NS(=O)(=O)c1cccc(NC(=O)c2c[nH]c3ccccc23)c1 [I-707, N-(3-(N-(2-methoxyphenyl)sulfamoyl)phenyl)-1H-indole-3-carboxamide] | 62
4 | O=C(Nc1ccc(S(=O)(=O)Nc2ncccn2)cc1)c1cccc(S(=O)(=O)N2CCc3ccccc32)c1 [I-554, 3-(indolin-1-ylsulfonyl)-N-(4-(N-(pyrimidin-2-yl)sulfamoyl)phenyl)benzamide] | 52
5 | O=C(Nc1cc(Cl)ccc1NS(=O)(=O)c1ccccc1F)c1ccc(NC(=O)C2CC2)cc1 [I-834, N-(5-chloro-2-((2-fluorophenyl)sulfonamido)phenyl)-4-(cyclopropanecarboxamido)benzamide] | 54
6 | NC(=O)c1ccc(NC(=O)c2cccc(S(=O)(=O)N3CCc4ccccc43)c2)cc1 [I-607, N-(4-carbamoylphenyl)-3-(indolin-1-ylsulfonyl)benzamide] | 16
7 | COc1ccc(N(C)S(=O)(=O)c2cccc(C(=O)Nc3ccc4c(c3)OCCO4)c2)cc1 [I-563, N-(2,3-dihydrobenzo[b][1,4]dioxin-6-yl)-3-(N-(4-methoxyphenyl)-N-methylsulfamoyl)benzamide] | 51
8 | Cc1ccc(NS(=O)(=O)c2ccc(C(=O)Nc3cccc(C#N)c3)cc2)cc1C [I-384, N-(3-cyanophenyl)-4-(N-(3,4-dimethylphenyl)sulfamoyl)benzamide] | 66
9 | O=C(Nc1ccc(F)c(F)c1)c1cccc(S(=O)(=O)N2CCc3ccccc32)c1 [I-472, N-(3,4-difluorophenyl)-3-(indolin-1-ylsulfonyl)benzamide] | 59
10 | COc1ccc(NC(=O)c2ccccc2NS(=O)(=O)c2cccc(C(F)(F)F)c2)cc1OC [I-228, N-(3,4-dimethoxyphenyl)-2-((3-(trifluoromethyl)phenyl)sulfonamido)benzamide] | 55
11 | CC(=O)c1cccc(S(=O)(=O)Nc2cccc(C(=O)Nc3cccc(C(F)(F)F)c3)c2)c1 [I-319, 3-((3-acetylphenyl)sulfonamido)-N-(3-(trifluoromethyl)phenyl)benzamide] | 67
12 | Cc1ccc(NC(=O)c2cccc(S(=O)(=O)N(C)c3ccc(C)cc3)c2)cc1 [I-502, 3-(N-methyl-N-(p-tolyl)sulfamoyl)-N-(p-tolyl)benzamide] | 57
13 | O=C(Nc1ccccc1OC(F)F)c1ccc(NS(=O)(=O)c2ccccc2)cc1 [I-960, N-(2-(difluoromethoxy)phenyl)-4-(phenylsulfonamido)benzamide] | 14
14 | Cc1ccc(C(=O)Nc2cccc(S(=O)(=O)Nc3cccc(C(F)(F)F)c3)c2)cn1 [I-740, 6-methyl-N-(3-(N-(3-(trifluoromethyl)phenyl)sulfamoyl)phenyl)nico tinamide] | 51
15 | COc1ccc(Cl)cc1NS(=O)(=O)c1cccc(C(=O)Nc2ccc(N(C)C)nc2)c1 [I-599, 3-(N-(5-chloro-2-methoxyphenyl)sulfamoyl)-N-(6-(dimethylamino)pyridin-3-yl)benzamide] | 30
16 | CCOC(=O)c1sc(NC(=O)c2cccc(S(=O)(=O)Nc3ccc(F)cc3)c2)cc1C [I-431, ethyl 5-(3-(N-(4-fluorophenyl)sulfamoyl)benzamido)-3-methylthiophene-2-carboxylate] | 68
